Columns and labels:
B/Florida/04/2006 = assay: Antiviral activity (drug efficacy evaluation by concentration) against B/Florida/04/2006; assay type: cell-based, B type influenza virus
[1] = test system: A/California/07/2009 (H1N1); assay: Antiviral activity (drug efficacy evaluation by concentration) against A/California/07/2009 (H1N1); assay type: cell-based, A type influenza virus; conditions: Influenza A virus, H1N1; read-out: EC50
A/Perth/16/2009 (H3N2) = assay: Antiviral activity (drug efficacy evaluation by concentration) against A/Perth/16/2009 (H3N2); assay type: cell-based, A type influenza virus; conditions: Influenza A virus, H3N2; read-out: EC50
[2] = CC50, third EC50/CC50 column pair (c7), beside the EC50 of c6

| SMILES | EC50 (B/Florida/04/2006) [µM] | EC50 [1] [µM] | EC50 (A/Perth/16/2009 (H3N2)) [µM] | CC50 (in vitro; CC50, beside the EC50 of c2) [µM] | CC50 (in vitro; CC50, beside the EC50 of c4) [µM] | CC50 (in vitro; [2]) [µM] |
| --- | --- | --- | --- | --- | --- | --- |
| Brc1ccc(Nc2nnc(/C=C/c3ccccc3Br)o2)cc1 [Compound 83, (E)-N-(4-bromophenyl)-5-(2-bromostyryl)-1,3,4-oxadiazol-2-amine] | 4.63 | 4.25 | 4.75 | > 50 | > 50 | > 50 |
| CC(C)c1ccccc1CCc1nnc(Cc2ccc(Br)cc2)o1 [Compound 92, 2-(4-bromobenzyl)-5-(2-isopropylphenethyl)-1,3,4-oxadiazole] | 6.59 | 7.17 | 6.42 | > 50 | > 50 | > 50 |
| CC(C)c1ccccc1CCc1nnc(Cc2ccc(OC(F)(F)F)cc2)o1 [Compound 93, 2-(2-isopropylphenethyl)-5-(4-(trifluoromethoxy)benzyl)-1,3,4-oxadiazole] | 45.1 | 22.1 | 31.5 | > 50 | > 50 | > 50 |
| Cc1cc(C)cc(Cc2nnc(CCc3ccccc3C(C)C)o2)c1 [Compound 94, 2-(3,5-dimethylbenzyl)-5-(2-isopropylphenethyl)-1,3,4-oxadiazole] | > 50 | 37.8 | 43.4 | > 50 | > 50 | > 50 |
| Clc1cccc(Cc2nnc(SCc3ccccc3-c3ccccc3)o2)c1 [Compound 95, 2-(([1,1′-biphenyl]-2-ylmethyl)thio)-5-(3-chlorobenzyl)-1,3,4-oxadiazole] | 37.6 | 12.5 | 41.4 | > 50 | > 50 | > 50 |
| Cc1nn(Cc2nnc(S(=O)(=O)Cc3ccccc3-c3ccccc3)o2)c(C)c1Br [Compound 96, 2-(([1,1′-biphenyl]-2-ylmethyl)sulfonyl)-5-((4-bromo-3,5-dimethyl-1H-pyrazol-1-yl)methyl)-1,3,4-oxadiazole] | 1.03 | 1.3 | 1.3 | > 50 | > 50 | > 50 |
| COC(c1ccccc1)c1nnc(SCc2ccccc2-c2ccccc2)o1 (stereo not drawn) [Compound 97, 2-(([1,1′-biphenyl]-2-ylmethyl)thio)-5-(methoxy(phenyl)methyl)-1,3,4-oxadiazole] | 2.53 | 4.4 | 5.9 | 6.08 | 6.2 | 6 |
| Brc1ccc(Cc2nnc(Cc3cccc4ccccc34)o2)cc1 [Compound 100, 2-(4-bromobenzyl)-5-(naphthalen-1-ylmethyl)-1,3,4-oxadiazole] | > 50 | > 50 | 49 | > 50 | > 50 | > 50 |
| CC(C)c1ccccc1CCc1nnc(Cc2cccc(Br)c2)o1 [Compound 101, 2-(3-bromobenzyl)-5-(2-isopropylphenethyl)-1,3,4-oxadiazole] | 36.5 | 45.3 | 45.5 | > 50 | > 50 | > 50 |
| CC(C)c1ccccc1CCc1nnc(Cc2cccc(Cl)c2)o1 [Compound 102, 2-(3-chlorobenzyl)-5-(2-isopropylphenethyl)-1,3,4-oxadiazole] | 2.14 | 1.7 | 1.5 | 47.7 | > 50 | > 50 |
| Cc1ccccc1CCc1nnc(Cc2ccc(Br)cc2)o1 [Compound 103, 2-(4-bromobenzyl)-5-(2-methylphenethyl)-1,3,4-oxadiazole] | 3.15 | 3.1 | 3 | > 50 | > 50 | > 50 |
| Brc1cccc(Cc2nnc(SCc3ccccc3-c3ccccc3)o2)c1 [Compound 104, 2-(([1,1′-biphenyl]-2-ylmethyl)thio)-5-(3-bromobenzyl)-1,3,4-oxadiazole] | 42.8 | > 50 | > 50 | > 50 | > 50 | > 50 |
| FC(F)(F)Oc1ccc(Cc2nnc(SCc3ccccc3-c3ccccc3)o2)cc1 [Compound 106, 2-(([1,1′-biphenyl]-2-ylmethyl)thio)-5-(4-(trifluoromethoxy)benzyl)-1,3,4-oxadiazole] | 12.1 | 11.5 | 11.8 | > 50 | > 50 | > 50 |
| Brc1ccc(Cc2nnc(CC3CCCc4ccccc43)o2)cc1 (stereo not drawn) [Compound 109, 2-(4-bromobenzyl)-5-((1,2,3,4-tetrahydronaphthalen-1-yl)methyl)-1,3,4-oxadiazole] | 34.7 | 45.9 | 32.4 | > 50 | > 50 | > 50 |
| Cc1ccccc1C(C)Cc1nnc(Cc2ccc(Br)cc2)o1 (stereo not drawn) [Compound 110, 2-(4-bromobenzyl)-5-(2-(o-tolyl)propyl)-1,3,4-oxadiazole] | 46.7 | 32.2 | 41.5 | 46.7 | > 50 | > 50 |
| Cc1cc(C)cc(Cc2nnc(/C=C/c3ccccc3C(C)C)o2)c1 [Compound 113, 2-(3,5-dimethylbenzyl)-5-(2-isopropylstyryl)-1,3,4-oxadiazole] | 1.55 | 1.37 | 1.39 | 10 | 25.5 | 40.2 |
| CC(C)c1ccccc1OCc1nnc(Cc2ccccc2)o1 [Compound 114, 2-benzyl-5-((2-isopropylphenoxy)methyl)-1,3,4-oxadiazole] | 12 | 17.7 | 17.7 | 21.8 | > 50 | > 50 |
| CC(C)c1ccccc1OCc1nnc(Cc2ccc(Br)cc2)o1 [Compound 115, 2-(4-bromobenzyl)-5-((2-isopropylphenoxy)methyl)-1,3,4-oxadiazole] | 45.1 | 44.9 | 38.2 | > 50 | > 50 | > 50 |
| Brc1ccc(Nc2nnc(CCc3ccccc3-c3ccccc3)o2)cc1 [Compound 118, 5-(2-([1,1′-biphenyl]-2-yl)ethyl)-N-(4-bromophenyl)-1,3,4-oxadiazol-2-amine] | > 50 | 43.9 | > 50 | > 50 | > 50 | > 50 |
| Brc1ccc(Cc2nnc(CCc3ccccc3-c3ccccc3)o2)cc1 [Compound 119, 2-(2-([1,1′-biphenyl]-2-yl)ethyl)-5-(4-bromobenzyl)-1,3,4-oxadiazole] | > 50 | > 50 | > 50 | > 50 | > 50 | > 50 |
| CC(C)c1ccc(Cc2nnc(/C=C/c3ccccc3C(C)C)o2)cc1 [Compound 133, 2-(4-isopropylbenzyl)-5-(2-isopropylstyryl)-1,3,4-oxadiazole] | 1.97 | 2.66 | 1.4 | > 50 | > 50 | > 50 |
| Cc1cccc(C)c1CCc1nnc(Cc2ccc(Br)cc2)o1 [Compound 135, 2-(4-bromobenzyl)-5-(2,6-dimethylphenethyl)-1,3,4-oxadiazole] | 5.63 | 6.4 | 4.38 | > 50 | > 50 | > 50 |
| Cc1ccccc1CC(C)c1nnc(Cc2ccc(Br)cc2)o1 (stereo not drawn) [Compound 140, 2-(4-bromobenzyl)-5-(1-(o-tolyl)propan-2-yl)-1,3,4-oxadiazole] | 14.1 | 18.2 | 19.9 | > 50 | > 50 | > 50 |
| C/C(=C\c1ccccc1C)c1nnc(Cc2ccc(Br)cc2)o1 [Compound 144, 2-(4-bromobenzyl)-5-(1-(o-tolyl)prop-1-en-2-yl)-1,3,4-oxadiazole] | > 50 | 48.7 | 49.3 | > 50 | > 50 | > 50 |
| Cc1ccc(Cc2nnc(/C=C/c3ccccc3C(C)C)o2)cc1C [Compound 146, 2-(3,4-dimethylbenzyl)-5-(2-isopropylstyryl)-1,3,4-oxadiazole] | 3.07 | 5.27 | 3.74 | 24.1 | > 50 | > 50 |
| CC(C)c1ccccc1/C=C/c1nnc(C(C)c2ccccc2)o1 (stereo not drawn) [Compound 147, 2-(2-isopropylstyryl)-5-(1-phenylethyl)-1,3,4-oxadiazole] | 4.4 | 6 | 6 | > 50 | > 50 | > 50 |
| CC(C)Cc1ccc(C(C)c2nnc(/C=C/c3ccccc3C(C)C)o2)cc1 (stereo not drawn) [Compound 148, 2-(1-(4-isobutylphenyl)ethyl)-5-(2-isopropylstyryl)-1,3,4-oxadiazole] | 45.1 | 39.8 | 38.9 | > 50 | > 50 | > 50 |
| CC(C)c1ccccc1/C=C/c1nnc(Cc2ccc(Br)c(F)c2)o1 [Compound 164, 2-(4-bromo-3-fluorobenzyl)-5-(2-isopropylstyryl)-1,3,4-oxadiazole] | 8.35 | 5.16 | 4.32 | > 50 | > 50 | > 50 |
| Cc1ccc(F)c(Cc2nnc(/C=C/c3ccccc3C(C)C)o2)c1 [Compound 173, 2-(2-fluoro-5-methylbenzyl)-5-(2-isopropylstyryl)-1,3,4-oxadiazole] | 1.91 | 1.77 | 1.71 | 13.5 | 12.6 | 15.8 |

— patent publication US11149033B2, “Heteroaryl compound, enantiomer, diastereomer or pharmaceutically acceptable salt thereof, and antiviral composition containing same as active ingredient” (priority 2016, dated 2021)
